Data from ChEMBL document CHEMBL1141393 (J Med Chem, 2007).
≈ marks a conversion by molar mass, not a printed value.

Columns and labels:
[1] = tested on: Plasmodium falciparum; experiment: Antiplasmodial activity against chloroquine-resistant Plasmodium falciparum K1; type: functional, organism-based
[2] = tested on: Plasmodium falciparum; experiment: Antiplasmodial activity against chloroquine-sensitive Plasmodium falciparum 3D7; type: functional, organism-based
[3] = tested on: Plasmodium falciparum; experiment: Antiplasmodial activity against chloroquine-sensitive Plasmodium falciparum D10; type: functional, organism-based
[4] = tested on: Plasmodium falciparum; experiment: Antiplasmodial activity against chloroquine-resistant Plasmodium falciparum W2; type: functional, organism-based
[5] = tested on: Cryptococcus neoformans; experiment: Antifungal activity against Cryptococcus neoformans; type: functional
[6] = tested on: Daudi; experiment: Cytotoxicity against human Daudi cell line; type: cell-based
[7] = Cytotoxicity against human lymphocytes; type: cell-based; conditions: Lymphocyte
[8] = tested on: Aspergillus fumigatus; experiment: Antifungal activity against Aspergillus fumigatus; type: functional
[9] = tested on: Pichia kudriavzevii; experiment: Antifungal activity against Candida krusei ATCC 6258; type: functional
[10] = tested on: KB; experiment: Cytotoxicity against human KB cell line; type: cell-based
[11] = tested on: Candida albicans; experiment: Antifungal activity against Candida albicans; type: functional
[12] = tested on: Aspergillus flavus; experiment: Antifungal activity against Aspergillus flavus ATCC 204304; type: functional
[13] = tested on: Candida parapsilosis; experiment: Antifungal activity against Candida parapsilosis ATCC 22019; type: functional; conditions: Lodderomyces parapsilosis
[14] = tested on: Aspergillus fumigatus; experiment: Antifungal activity against itraconazole resistant Aspergillus fumigatus; type: functional

Structure (SMILES) | IC50 [1] [nM] | IC50 [2] [nM] | IC50 [3] [nM] | IC50 [4] [nM] | MIC [5] [µg/mL] | IC50 [6] [nM] | IC50 [7] [nM] | MIC [8] [µg/mL] | MIC [9] [µg/mL] | IC50 [10] [nM] | MIC [11] [µg/mL] | MIC [12] [µg/mL] | MIC [13] [µg/mL] | MIC [14] [µg/mL]
N#CC(c1ccccc1)(c1ccc(Cl)cc1)c1ccc(CN2CCCC2)cc1 (racemic) | 2640 | 5070 | – | – | – | – | – | – | – | – | – | – | – | –
OC(c1ccccc1)(c1ccc(Cl)cc1)c1ccc(CN2CCCC2)cc1 (racemic) | 2170 | > 10000 | 8300 | – | – | – | – | – | – | – | – | – | – | –
Clc1ccc(C(c2ccccc2)(c2ccc(CN3CCCC3)cc2)N2CCCC2)cc1 (racemic) | 1990 | 940 | 4810 | 2570 | – | – | – | – | – | – | – | – | – | –
Clc1ccccc1C(CNCN1CCCC1)n1ccnc1 (racemic) | 920 | 2610 | 9430 | 3050 | – | – | – | – | – | – | – | – | – | –
Clc1ccc(C(c2ccccc2)(c2ccc(CN3CCCC3)cc2)n2ccnc2)cc1 (racemic) | – | – | – | – | > 32 | 58000 | 70000 | > 32 | 16 (≈ 37.4 µM) | 70000 | 32 (≈ 74.8 µM) | > 32 | 32 (≈ 74.8 µM) | –
Clc1ccc(C(Cn2ccnc2)(c2ccccc2)c2ccc(CN3CCCC3)cc2)cc1 (racemic) | 520 | 750 | – | – | – | – | – | – | – | – | – | – | – | –
Clc1ccccc1C(c1ccc(CN2CCCC2)cc1)n1ccnc1 (racemic) | 110 | 11 | 2180 | 1700 | > 32 | – | – | > 32 | > 32 | – | > 32 | > 32 | > 32 | –
CCN(CC)Cc1ccc(C(c2ccccc2Cl)n2cncn2)cc1 (racemic) | 790 | > 10000 | > 10000 | > 10000 | – | – | – | – | – | – | – | – | – | –
Clc1ccc(C(c2ccc(CN3CCCC3)cc2)n2ccnc2)cc1 (racemic) | 170 | 310 | 1660 | 1130 | > 32 | – | – | > 32 | > 32 | – | > 32 | > 32 | > 32 | –
COc1ccc(C(c2ccccc2)(c2ccc(CN3CCCC3)cc2)n2ccnc2)cc1 (racemic) | 5930 | 8130 | 2040 | 1840 | – | – | – | – | – | – | – | – | – | –
Clc1cccc(C(c2ccc(CN3CCCC3)cc2)n2ccnc2)c1 (racemic) | 200 | 110 | 1420 | 1030 | > 32 | – | – | > 32 | > 32 | – | > 32 | > 32 | > 32 | –
CCN(CC)CCCNCC(c1ccccc1Cl)n1ccnc1 (racemic) | 3080 | 1900 | 6410 | 4460 | – | – | – | – | – | – | – | – | – | –
Clc1ccc(C(c2ccccc2)(c2ccc(CN3CCCC3)cc2)n2cncn2)cc1 (racemic) | 2150 | 8910 | 6920 | 3830 | – | – | – | – | – | – | – | – | – | –
Clc1cccc(C(c2ccccc2)(c2ccc(CN3CCCC3)cc2)n2ccnc2)c1 (racemic) | 23 | 47 | 230 | 100 | – | – | – | – | – | – | – | – | – | –
Clc1ccccc1C(c1ccccc1)(c1ccccc1)n1ccnc1 [CLOTRIMAZOLE] | – | – | – | – | 2 (≈ 5.8 µM) | – | – | 4 (≈ 11.6 µM) | 2 (≈ 5.8 µM) | – | 0.03 (≈ 0.087 µM) | 4 (≈ 11.6 µM) | 2 (≈ 5.8 µM) | 4 (≈ 11.6 µM)
